Measurements from paper PMC5840523, “Assessment of a pretomanid analogue library for African trypanosomiasis: Hit-to-lead studies on 6-substituted 2-nitro-6,7-dihydro-5H-imidazo[2,1-b][1,3]thiazine 8-oxides” (Bioorganic & Medicinal Chemistry Letters, 2018).
In brackets after ≈: the same amount, converted by molar mass. Read-outs that look alike come from different tables or passages of the source. Values belong to the compound of their own block, whether it stands above or below them.

Key:
T. b. brucei 427 [1] = assay: T. b. brucei 427 growth inhibition (Scynexis); assay type: cell-based, Trypanosoma brucei brucei; conditions: for Selectivity Index: L929 vs T. b. brucei; for IC50: Trypanosoma brucei, growth inhibition of T. b. brucei 427, mean ± SD
MDCK-MDR1 cell monolayer = conditions: dog, MDCK-MDR1, 1 h, 3 µM
Leishmania infantum = assay: L. infantum growth inhibition (University of Antwerp); assay type: cell-based; conditions: Leishmania infantum, mean of 2 to 5 determinations
T. b. rhodesiense = T. b. rhodesiense growth inhibition (University of Antwerp); assay type: cell-based, Trypanosoma brucei rhodesiense; conditions: Trypanosoma brucei, RHODESIENSE, mean of 2 to 5 determinations; read-out: IC50 T. b. rhod
Trypanosoma cruzi = assay: T. cruzi growth inhibition (University of Antwerp); assay type: cell-based; conditions: Trypanosoma cruzi, mean of 2 to 5 determinations
[2] = test system: human lung fibroblasts (MRC-5 cells); assay: Cytotoxicity toward MRC-5 cells (University of Antwerp); assay type: cell-based; conditions: Homo sapiens, MRC5, cytotoxicity toward human lung fibroblasts
L929 mouse fibroblasts = assay: Cytotoxicity toward L929 mouse fibroblasts (Scynexis); assay type: cell-based
T. b. brucei 427 [3] = assay: T. b. brucei growth inhibition (University of Antwerp); assay type: cell-based, Trypanosoma brucei brucei; conditions: Trypanosoma brucei, T. b. brucei 427; mean of 2 to 5 determinations; read-out: IC50 T. b. bruc
in vitro = conditions: dog, MDCK-MDR1, Permeability Papp
[4] = Kinetic aqueous solubility in pH 7.4 PBS; assay type: physicochemical
From the text: Table 1 Inhibitory potency, metabolic stability, aqueous solubility, and MDCK-MDR1 cell permeability for 15 screening hits against T. b. brucei. | column: Solubility ^c / (µg/mL)

Mouse liver S9 stability = assay type: in vitro ADME; conditions: CD-1, mouse, mouse liver S9 subcellular fraction, half-life in mouse liver S9 fraction; read-out: Mouse S9 t1/2
[5] = Mouse pharmacokinetics (plasma, whole blood, brain); assay type: in vivo, male CD-1 mice; conditions: male, CD-1, mouse; for bioavailability: po, from dose normalised AUClast values, read-out: F (oral bioavailability); for Vd: read-out: Vdss; for half-life: read-out: t1/2 (converted)
Description: In order to determine the suitability of the more permeable hits for in vivo efficacy studies, we first measured their aqueous solubilities, and their tendencies to metabolise, following a 1 h incubation with CD-1 mouse liver S9 subcellular fractions.[14] […] This led us to probe their in vivo pharmacokinetic (PK) profiles in mice, examining concentration levels in plasma, whole blood and brain tissue following both intravenous and oral administration (Table 2; for further experimental details, see the Supporting Information). […]
Mouse Pharmacokinetics. The in-life portion of PK testing was carried out by ViviSource Laboratories, Inc., Mass achusetts, USA, and PK samples were anal ysed by Sc ynexis, Inc.
Test compounds (9, 12, 17, and 19) w er e each administered as single doses to groups of 10 male CD-1 mice by bolus intravenous injection or oral gavage. Intravenous dosing (at a nominal dose of 2 mg/kg) emplo yed a solution vehicle comprising either 20% EtOH, 20% propylene gl ycol, and 30% PEG -400 in normal saline (for powders 9, 17, and 19) or 0.5% (hydrox yprop yl)meth ylcellulose, 0.4% Tween 80, 0.5% benz yl alcohol, and 20% DMSO i n deionised water (for oil 12). […]
in 0.5% methylcellulose, 0.08% Tween 80 in water ( ex cept fo r oil 12, where the formulation additionally contained 20% DMSO). […]

[6] = Human liver microsomal stability; assay type: in vitro ADME; conditions: pooled human liver microsomes
[7] = Mouse liver microsomal stability; assay type: in vitro ADME; conditions: CD-1 mouse liver microsomes
[8] = brain, intravenous, corrected doses 0.5, 1.1, 2.9, 2.0 mg/kg for 9, 12, 17, 19
[9] = brain, oral, corrected doses 62, 50, 78, 49 mg/kg for 9, 12, 17, 19
[10] = plasma, intravenous, corrected doses 0.5, 1.1, 2.9, 2.0 mg/kg for 9, 12, 17, 19
[11] = plasma, oral, corrected doses 62, 50, 78, 49 mg/kg for 9, 12, 17, 19
[12] = whole blood, intravenous, corrected doses 0.5, 1.1, 2.9, 2.0 mg/kg for 9, 12, 17, 19
[13] = whole blood, oral, corrected doses 62, 50, 78, 49 mg/kg for 9, 12, 17, 19

Compound: O=[N+]([O-])c1cn2c(n1)S(=O)(=O)CC(OCc1ccc(OCc3ccccc3)cc1)C2 (stereo not shown) [Compound 10]
Selectivity Index (T. b. brucei 427 [1]): >303
IC50 (T. b. brucei 427 [1]): 0.033 ± 0.018 µg/mL (≈ 0.0768 µM)
absolute AQ (MDCK-MDR1 cell monolayer): ≥ 0.3
IC50 (Leishmania infantum): 7.3 µM
IC50 (T. b. rhodesiense): 0.027 µM
IC50 (Trypanosoma cruzi): 0.35 µM
IC50 [2]: > 64 µM
IC50 (L929 mouse fibroblasts): > 10 µg/mL
IC50 (T. b. brucei 427 [3]): 0.097 µM

Compound: O=[N+]([O-])c1cn2c(n1)S(=O)(=O)CC(OCc1ccc(OC(F)(F)F)cc1)C2 (stereo not shown) [Compound 19]
Selectivity Index (T. b. brucei 427 [1]): >11
weaker potency vs 12 (fold) (T. b. brucei 427 [1]; T. b. brucei): 5.6 fold
IC50 (T. b. brucei 427 [1]): 0.9 ± 0.4 µg/mL (≈ 2.21 µM)
IC50 (Leishmania infantum): > 64 µM
solubility [4]: 10 µg/mL (≈ 24.6 µM)
IC50 (T. b. rhodesiense): 0.94 µM
IC50 (Trypanosoma cruzi): 1.6 µM
half-life (Mouse liver S9 stability): 4.97 h
IC50 [2]: > 64 µM
IC50 (L929 mouse fibroblasts): > 10 µg/mL
bioavailability ([5]; brain): 43%
bioavailability ([5]; plasma): 42%
bioavailability ([5]; whole blood): 37%
AUC(0-t) [5, 8]: 1770 ng·h/mL
clearance [5, 8]: 8.5 mL/min/kg
Vd [5, 8]: 9.1 L/kg
half-life [5, 8]: 14 h
AUC(0-t) [5, 9]: 18800 ng·h/mL
Cmax [5, 9]: 2400 ng/mL
Tmax [5, 9]: 4 h
half-life [5, 9]: 3 h
AUC(0-t) [5, 10]: 1800 ng·h/mL
clearance [5, 10]: 16.7 mL/min/kg
Vd [5, 10]: 3.6 L/kg
half-life [5, 10]: 2.5 h
AUC(0-t) [5, 11]: 18700 ng·h/mL
Cmax [5, 11]: 2300 ng/mL
Tmax [5, 11]: 2 h
half-life [5, 11]: 2.7 h
AUC(0-t) [5, 12]: 2600 ng·h/mL
clearance [5, 12]: 11.5 mL/min/kg
Vd [5, 12]: 2.8 L/kg
half-life [5, 12]: 5.9 h
AUC(0-t) [5, 13]: 23700 ng·h/mL
Cmax [5, 13]: 3000 ng/mL
Tmax [5, 13]: 2 h
half-life [5, 13]: 3.3 h
Papp at 1 h, 3 µM (in vitro): 62.4 ×10⁻⁶ cm/s
IC50 (T. b. brucei 427 [3]): 1.1 µM

Compound: O=[N+]([O-])c1cn2c(n1)[S@@+]([O-])C[C@@H](OCc1ccc(OC(F)(F)F)cc1)C2 [Compound 25]
IC50 (T. b. brucei 427 [1]): 2.8 ± 0.4 µg/mL (≈ 7.16 µM)
IC50 (Leishmania infantum): > 64 µM
IC50 (T. b. rhodesiense): 1.9 µM
remaining at 1 h [6]: 93%
IC50 (Trypanosoma cruzi): 13 µM
IC50 [2]: > 64 µM
IC50 (L929 mouse fibroblasts): > 10 µg/mL
remaining at 1 h [7]: 93%
IC50 (T. b. brucei 427 [3]): 5.6 µM

Compound: O=[N+]([O-])c1cn2c(n1)[S@@+]([O-])C[C@H](OCc1ccc(OC(F)(F)F)cc1)C2 [Compound 26]
IC50 (T. b. brucei 427 [1]): > 5 µg/mL
IC50 (Leishmania infantum): 41 µM
IC50 (T. b. rhodesiense): 7.3 µM
remaining at 1 h [6]: 91%
IC50 (Trypanosoma cruzi): 6.5 µM
IC50 [2]: > 64 µM
IC50 (L929 mouse fibroblasts): > 10 µg/mL
remaining at 1 h [7]: 26%
IC50 (T. b. brucei 427 [3]): 34 µM

Compound: O=[N+]([O-])c1cn2c(n1)[S@+]([O-])C[C@H](OCc1ccc(OC(F)(F)F)cc1)C2 [Compound 27]
IC50 (T. b. brucei 427 [1]): > 5 µg/mL
IC50 (Leishmania infantum): 48 µM
IC50 (T. b. rhodesiense): 4.3 µM
remaining at 1 h [6]: 88%
IC50 (Trypanosoma cruzi): 13 µM
IC50 [2]: > 64 µM
IC50 (L929 mouse fibroblasts): > 10 µg/mL
remaining at 1 h [7]: 89%
IC50 (T. b. brucei 427 [3]): 16 µM

The next lines start with results.

Permeability Papp (MDCK-MDR1 cell monolayer): <0.08 ×10⁻⁶ cm/s
Papp at 1 h, 3 µM (in vitro): < 0.08 ×10⁻⁶ cm/s
Compound: O=[N+]([O-])c1cn2c(n1)OC[C@@H](OCCCc1ccc(-c3ccc(Oc4ccc(C(F)(F)F)cc4)cc3)cc1)C2 [Compound 13]
Selectivity Index (T. b. brucei 427 [1]): >43
IC50 (T. b. brucei 427 [1]): 0.23 ± 0.04 µg/mL (≈ 0.426 µM)
IC50 (L929 mouse fibroblasts): > 10 µg/mL

Permeability Papp (MDCK-MDR1 cell monolayer): 11.7 ×10⁻⁶ cm/s
absolute AQ (MDCK-MDR1 cell monolayer): ≥ 0.3
Papp at 1 h, 3 µM (in vitro): < 15 ×10⁻⁶ cm/s
Compound: O=[N+]([O-])c1cn2c(n1)OCC(COc1ccc(-c3ccc(C(F)(F)F)cc3)nc1)C2 (stereo not shown) [Compound 14]
Selectivity Index (T. b. brucei 427 [1]): >36
IC50 (T. b. brucei 427 [1]): 0.28 ± 0.11 µg/mL (≈ 0.666 µM)
IC50 (L929 mouse fibroblasts): > 10 µg/mL

absolute AQ (MDCK-MDR1 cell monolayer): ≥ 0.3
Compound: O=[N+]([O-])c1cn2c(n1)OC[C@@H](OCC#Cc1ccc(-c3ccc(C(F)(F)F)cc3)cn1)C2 [Compound 16]
Selectivity Index (T. b. brucei 427 [1]): >19
IC50 (T. b. brucei 427 [1]): 0.53 ± 0.23 µg/mL (≈ 1.19 µM)
IC50 (L929 mouse fibroblasts): > 10 µg/mL

absolute AQ (MDCK-MDR1 cell monolayer): ≥ 0.3
Compound: O=[N+]([O-])c1cn2c(n1)OCC(COc1ccc(-c3ccc(OC(F)(F)F)cc3)nc1)C2 (stereo not shown) [Compound 18]
Selectivity Index (T. b. brucei 427 [1]): >12
IC50 (T. b. brucei 427 [1]): 0.83 ± 0.41 µg/mL (≈ 1.9 µM)
IC50 (L929 mouse fibroblasts): > 10 µg/mL
